Data set [1] is filed under the species Rattus norvegicus. The data set can be described thus: Inhibition of P-glycoprotein in White Wistar rat jejunum assessed as permeability at 30 uM after 30 mins by HPLC analysis. The format is tissue-based.
The species entered for data set [2] is Rattus norvegicus. The data set can be described thus: Inhibition of P-glycoprotein in White Wistar rat ileum assessed as permeability at 30 uM after 30 mins by HPLC analysis. Format: tissue-based.
The species named for data set [3] is Rattus norvegicus. The data set can be described thus: Inhibition of P-glycoprotein in White Wistar rat colon assessed as permeability at 30 uM after 30 mins by HPLC analysis.
The target in data set [4] is T1, Multidrug resistance-associated protein 1 (Rattus norvegicus, UniProt Q8CG09). As to the kind of experiment: Inhibition of MRP1/MRP2 in White Wistar rat ileum assessed as increase in drug uptake at 1 mM after 30 mins by HPLC analysis. The format is tissue-based. Conditions: 0.5 h, 1000 µM.
T1 sequence (Q8CG09 whole entry): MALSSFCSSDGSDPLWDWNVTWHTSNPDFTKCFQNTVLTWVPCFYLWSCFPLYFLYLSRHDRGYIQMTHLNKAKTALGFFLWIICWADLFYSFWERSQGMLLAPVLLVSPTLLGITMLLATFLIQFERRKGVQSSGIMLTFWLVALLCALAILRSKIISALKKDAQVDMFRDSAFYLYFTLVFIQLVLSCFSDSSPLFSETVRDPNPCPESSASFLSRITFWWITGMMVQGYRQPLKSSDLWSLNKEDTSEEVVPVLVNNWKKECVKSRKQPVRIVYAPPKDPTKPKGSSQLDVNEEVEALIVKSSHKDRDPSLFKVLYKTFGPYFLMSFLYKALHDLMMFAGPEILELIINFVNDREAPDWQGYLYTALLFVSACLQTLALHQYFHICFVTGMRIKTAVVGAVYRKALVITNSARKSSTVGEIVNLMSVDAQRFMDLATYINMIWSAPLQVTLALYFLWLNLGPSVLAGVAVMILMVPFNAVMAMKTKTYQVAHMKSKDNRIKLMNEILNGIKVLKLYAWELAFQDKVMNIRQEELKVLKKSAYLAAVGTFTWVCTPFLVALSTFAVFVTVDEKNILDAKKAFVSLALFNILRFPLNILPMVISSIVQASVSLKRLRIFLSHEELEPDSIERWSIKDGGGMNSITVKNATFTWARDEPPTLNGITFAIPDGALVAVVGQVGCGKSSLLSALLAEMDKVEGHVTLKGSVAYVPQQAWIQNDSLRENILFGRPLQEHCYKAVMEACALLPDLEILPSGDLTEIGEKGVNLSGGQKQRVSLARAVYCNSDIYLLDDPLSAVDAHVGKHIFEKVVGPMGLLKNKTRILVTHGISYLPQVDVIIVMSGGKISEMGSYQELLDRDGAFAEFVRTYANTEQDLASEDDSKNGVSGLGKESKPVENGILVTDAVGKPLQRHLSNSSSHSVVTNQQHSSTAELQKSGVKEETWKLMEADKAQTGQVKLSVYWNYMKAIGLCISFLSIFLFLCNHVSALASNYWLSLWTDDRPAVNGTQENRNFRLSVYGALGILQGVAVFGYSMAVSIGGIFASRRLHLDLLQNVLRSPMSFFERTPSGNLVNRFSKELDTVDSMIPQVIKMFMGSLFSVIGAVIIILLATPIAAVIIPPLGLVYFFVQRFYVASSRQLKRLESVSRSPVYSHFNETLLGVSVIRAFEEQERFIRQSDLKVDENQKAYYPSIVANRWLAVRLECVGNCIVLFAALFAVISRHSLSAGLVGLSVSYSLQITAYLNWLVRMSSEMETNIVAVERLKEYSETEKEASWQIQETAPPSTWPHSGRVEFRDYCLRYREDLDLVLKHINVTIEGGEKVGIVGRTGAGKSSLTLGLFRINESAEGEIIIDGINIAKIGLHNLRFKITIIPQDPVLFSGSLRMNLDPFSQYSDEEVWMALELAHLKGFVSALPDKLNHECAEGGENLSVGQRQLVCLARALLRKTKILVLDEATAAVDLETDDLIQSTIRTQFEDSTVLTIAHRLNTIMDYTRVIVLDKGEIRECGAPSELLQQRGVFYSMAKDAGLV
Data set [5] addresses T1, Multidrug resistance-associated protein 1. As to the kind of experiment: Inhibition of MRP1/MRP2 in White Wistar rat colon assessed as increase in drug uptake at 1 mM after 30 mins by HPLC analysis. Conditions: 0.5 h, 1000 µM.
For data set [6] the target is unchanged. The data set can be described thus: Inhibition of MRP1/MRP2 in White Wistar rat jejunum assessed as increase in drug uptake at 1 mM after 30 mins by HPLC analysis. The format is tissue-based. Conditions: 0.5 h, 1000 µM.

Consider `OCC12C3C4C1N(Cc1ccccc1)C1(CO)C(CO)(C4c4ccccc4)C(N3Cc3ccccc3)C1(CO)C2c1ccccc1` (stereo unspecified), for which the permeability in data set [1] amounted to 2.36 ×10⁻⁴ cm/s; in data set [2], 2.4 ×10⁻⁴ cm/s; in data set [3], 2.05 ×10⁻⁴ cm/s.
For `COc1ccc2c(c1)c(CC(=O)O)c(C)n2C(=O)c1ccc(Cl)cc1` [INDOMETHACIN], the Drug uptake in data set [4] was 13%; in data set [5], 13%; in data set [6] it was 24%.

The values above are taken from ChEMBL document CHEMBL1152477, “Evaluation of substrate and inhibitor properties of a novel MDR modulator H17 towards transmembrane efflux pumps” (Eur J Med Chem, 2009).
